Residues, ends and D or L forms follow the SMILES beside them.
Tests used:
Rat lipocytes [1] = assay: Glucose uptake, D-[U-14C]-glucose, rat lipocytes; format: cell-based; details: D-glucose 22 μM
Description: (§1) The biological activity of the peptides according to the invention, of the formula I and II, is determined using lipocytes and pieces of diaphragm obtained by dissection from rats. The term tripeptide means Tyr Cys Asn-OH and hexapeptide means acetyl-Leu Glu Asn Tyr Cys Asn-OH. The term "baseline" means the activity without stimulation, insulin means human insulin and dpm means radioactive disintegrations per minute. The term peptid denotes peptides having insulin activity according to the present invention. Rat lipocytes were prepared as follows:
Epididymal adipose tissue (Wistar rat, 160-180 g, no feed restriction) is digested with collagenase, and the resulting single lipocytes are washed several times by flotation.
(§2) The two following tests measure the glucose uptake which can be stimulated by insulin and which requires the functional insulin signal-transmission cascade and glucose transport, irrespective of whether glucose is metabolized by oxidation (glycolysis, pentose phosphate pathway) or not by oxidation. The conversion into lipids, glycogen or membrane-impermeable intermediates (glucose 6-phosphate), but not the production of lactate, is followed.
a) Rat lipocytes are incubated in the presence or absence of insulin or peptide with D-[U-^14 C]-glucose (final concentration of D-glucose 22 μM). The cells are separated from the medium by centrifugation through a silicone oil layer and are reisolated, and the cell-associated radioactivity is determined.

Pieces of diaphragm [2] = assay: Glucose uptake, D-[U-14C]-glucose, pieces of diaphragm; format: cell-based, rat; details: D-glucose 75 μM
Description: as §1
(§3) Preparation of pieces of diaphragm from rats: small pieces of tissue (5 mm diameter) are punched out of hemidiaphragms (Wistar rat, 60-70 g, no feed restriction) washed several times.
as §2
b) Pieces of diaphragm are incubated in the presence or absence of insulin or peptide with D-[U-^14 C]-glucose (final concentration of D-glucose 75 μM). The medium is aspirated out. The pieces of tissue are washed several times and subsequently solubilized by alkali treatment for the determination of radioactivity.

Rat lipocytes [3] = assay: Glucose transport, 2-deoxy-D-[1-3H]-glucose, rat lipocytes; format: cell-based; details: glucose 0.2 mM
Description: Epididymal adipose tissue (Wistar rat, 160-180 g, no feed restriction) is digested with collagenase, and the resulting single lipocytes are washed several times by flotation. Lipocytes and pieces of diaphragm are prepared as in Example 5. The following tests measure exclusively the specific glucose transport which can be stimulated by insulin (facilitated diffusion) through the plasma membrane by means of glucose carriers, including the insulin signal-transmission cascade. Any effect of glucose metabolism on glucose transport is ruled out by using the non-metabolizable glucose analog. a) Rat lipocytes are incubated in the presence or absence of insulin or peptide with 2-deoxy-D-[1-^3 H]-glucose (final concentration of D-glucose 0.2 mM) and L-[1-^14 C]-glucose (not transportable). To determine the radioactivity ([^3 H] and [^14 C]) the cells are separated from the medium by centrifugation through an oil layer. The specific stereoselective glucose transport is calculated as the difference between the total cell-bound radioactivity ([^3 H]-glucose) and the associated radioactivity due to diffusion and non-specific effects ([C]-glucose).

Pieces of diaphragm [4] = assay: Glucose transport, 2-deoxy-D-[1-3H]-glucose, pieces of diaphragm; format: cell-based, rat; details: glucose 0.1 mM
Description: as §3
Lipocytes and pieces of diaphragm are prepared as in Example 5. The following tests measure exclusively the specific glucose transport which can be stimulated by insulin (facilitated diffusion) through the plasma membrane by means of glucose carriers, including the insulin signal-transmission cascade. Any effect of glucose metabolism on glucose transport is ruled out by using the non-metabolizable glucose analog.
b) Pieces of diaphragm are incubated in the presence or absence of insulin or peptide with 2-deoxy-D-[1-^3 H]-glucose (final concentration of D-glucose 0.1 mM) and L-[1-^14 C]-glucose. The pieces of tissue are separated from the medium by rapid filtration through glass fiber filters and are thoroughly washed. The radioactivity is measured in an alkaline extract.

Rat lipocytes [5] = assay: Esterification in vitro of glycerol 3-phosphate in saponin-permeabilized lipocytes; format: cell-based
Description: This test measures the esterification of glycerol 3-phosphate which can be stimulated by insulin in lipid products (triglycerides, phospholipids). The enzymes of lipid synthesis (for example acyl-CoA: L-glycerol 3-phosphate acyltransferase) are involved in this, including a functional insulin signal-transmission cascade. […] The incubation is continued after addition of L-[U-^14 C]-glycerol 3-phosphate. Toluene-soluble scintillation cocktail is added and the lipid is separated from the aqueous phase by centrifugation. The toluene phase containing the lipid is removed and its radioactivity is determined.

Rat lipocytes [6] = assay: Lipogenesis in trypsin-treated rat lipocytes (insulin receptor inactivated); format: cell-based
Description: Rat lipocytes from Example 5 are treated with low concentrations of trypsin to inactivate the insulin receptor by proteolysis. After addition of protease inhibitors, the cells are washed twice by flotation, and the incubation is continued at 37° C. for 15 min. These cells are then used for the test of stimulation of lipogenesis by the peptides. […] This means that this test measures stimulation of lipogenesis owing to interventions in the insulin signal-transmission cascade after receptor binding of insulin.

Balb-C mice = assay: Blood glucose profile in mice; format: in vivo; details: intravenous
Description: Female Charles River Wiga Balb-C mice weighing 17 to 21 g (about 30 days old) receive a standard diet. The mice receive no food for 16 hours before the start of the experiment. 5 animals in each experimental group receive intravenous administration of an aqueous solution (pH 6) of the compound from Example 4 (octapeptide). Volume administered 0.3 ml/animal.
The average for each experimental group is indicated in each case.

Compound: NC(=O)C[C@H](NC(=O)[C@H](CS)NC(=O)[C@@H](N)Cc1ccc(O)cc1)C(=O)O [Tripeptide, H-Tyr-Cys-Asn-OH] (H-Tyr-Cys-Asn-OH)
- Glucose uptake (Rat lipocytes [1]; peptide 0.1 Mm): 1838 dpm
- Glucose uptake (Rat lipocytes [1]; peptide 0.5 Mm): 2947 dpm
- Glucose uptake (Rat lipocytes [1]; peptide 1 Mm): 6533 dpm
- Glucose uptake (Pieces of diaphragm [2]; peptide 0.1 Mm): 7591 dpm
- Glucose uptake (Pieces of diaphragm [2]; peptide 0.5 Mm): 8540 dpm
- Glucose uptake (Pieces of diaphragm [2]; peptide 1 Mm): 11588 dpm
- Glucose transport (Rat lipocytes [3]; peptide 0.1 Mm): 2289 dpm
- Glucose transport (Rat lipocytes [3]; peptide 0.5 Mm): 3055 dpm
- Glucose transport (Rat lipocytes [3]; peptide 1 Mm): 5781 dpm
- Glucose transport (Pieces of diaphragm [4]; peptide 0.1 Mm): 8836 dpm
- Glucose transport (Pieces of diaphragm [4]; peptide 0.5 Mm): 9822 dpm
- Glucose transport (Pieces of diaphragm [4]; peptide 1 Mm): 11252 dpm
- Esterification with lipocytes (Rat lipocytes [5]; peptide 0.5 mM): 4422 dpm
- Esterification with lipocytes (Rat lipocytes [5]; peptide 0.1 Mm): 3710 dpm
- Esterification with lipocytes (Rat lipocytes [5]; peptide 1 Mm): 5398 dpm
- Lipogenesis (Rat lipocytes [6]; peptide 0.5 mM): 4145 dpm
- Lipogenesis (Rat lipocytes [6]; peptide 0.1 Mm): 3250 dpm
- Lipogenesis (Rat lipocytes [6]; peptide 1 Mm): 5072 dpm

Compound: Ac-LENYCN-OH [Hexapeptide, Acetyl-Leu-Glu-Asn-Tyr-Cys-Asn-OH]
- Glucose uptake (Rat lipocytes [1]; peptide 0.1 Mm): 1488 dpm
- Glucose uptake (Rat lipocytes [1]; peptide 0.5 Mm): 1917 dpm
- Glucose uptake (Rat lipocytes [1]; peptide 1 Mm): 4218 dpm
- Glucose uptake (Pieces of diaphragm [2]; peptide 0.1 Mm): 7429 dpm
- Glucose uptake (Pieces of diaphragm [2]; peptide 0.5 Mm): 7752 dpm
- Glucose uptake (Pieces of diaphragm [2]; peptide 1 Mm): 8597 dpm
- Glucose transport (Rat lipocytes [3]; peptide 0.1 Mm): 2218 dpm
- Glucose transport (Rat lipocytes [3]; peptide 0.5 Mm): 2842 dpm
- Glucose transport (Rat lipocytes [3]; peptide 1 Mm): 3922 dpm
- Glucose transport (Pieces of diaphragm [4]; peptide 0.1 Mm): 8450 dpm
- Glucose transport (Pieces of diaphragm [4]; peptide 0.5 Mm): 8928 dpm
- Glucose transport (Pieces of diaphragm [4]; peptide 1 Mm): 9676 dpm

Compound: H-Tyr(Bu^t)-Gln-Leu-Glu(OBu^t)-Asn-Tyr(Bu^t)-Cys(Trt-Asn-Obu^t.HBr [Octapeptide]
- Blood glucose level, percentage difference to control group (Balb-C mice; 500 μg/animal, 20 minutes): -2%
- Blood glucose level, percentage difference to control group (Balb-C mice; 500 μg/animal, 40 minutes): -5%
- Blood glucose level, percentage difference to control group (Balb-C mice; 500 μg/animal, 60 minutes): -13%
- Blood glucose level, percentage difference to control group (Balb-C mice; 500 μg/animal, 75 minutes): -21%
- Blood glucose level, percentage difference to control group (Balb-C mice; 500 μg/animal, 90 minutes): -21%
- Blood glucose level, percentage difference to control group (Balb-C mice; 1000 μg/animal, 20 minutes): -31%
- Blood glucose level, percentage difference to control group (Balb-C mice; 1000 μg/animal, 40 minutes): -19%
- Blood glucose level, percentage difference to control group (Balb-C mice; 1000 μg/animal, 60 minutes): -23%
- Blood glucose level, percentage difference to control group (Balb-C mice; 1000 μg/animal, 75 minutes): -24%
- Blood glucose level, percentage difference to control group (Balb-C mice; 1000 μg/animal, 90 minutes): -19%

Compound: Insulin: insulin means human insulin
- Glucose uptake (Rat lipocytes [1]; insulin 0.5 ng): 4379 dpm
- Glucose uptake (Rat lipocytes [1]; insulin 5 ng): 26312 dpm
- Glucose uptake (Pieces of diaphragm [2]; insulin 0.5 ng): 10055 dpm
- Glucose uptake (Pieces of diaphragm [2]; insulin 5 ng): 20841 dpm
- Glucose transport (Rat lipocytes [3]; insulin 0.5 ng): 4851 dpm
- Glucose transport (Rat lipocytes [3]; insulin 5 ng): 20342 dpm
- Glucose transport (Pieces of diaphragm [4]; insulin 0.5 ng): 10828 dpm
- Glucose transport (Pieces of diaphragm [4]; insulin 5 ng): 17750 dpm
- Esterification with lipocytes (Rat lipocytes [5]; insulin 5 ng): 3640 dpm
- Lipogenesis (Rat lipocytes [6]; insulin 5 ng): 3087 dpm
